# Measurements from patent US5204311A, “Ethanediimidic acid bis[(arylalkylidene)hydrazide] color-formers” (Minnesota Mining and Manufacturing Company, priority 1991, dated 1993).
# Columns and labels:
# Type in all cases: physicochemical
# [1] = Color of coated CB sheet before imaging; settings: encapsulated, before imaging (Experiments 6, 7)
# Method: (§1) The capsule slurry (10 g) was added to 65 g of a 1.5% aqueous sodium alginate solution. The mixture was applied to a coated paper using a bar coater with a 3 mil gap. The coating was allowed to dry at room temperature.
# (§2) A 2% solution of the compound 1 in the capsule fill solvent of diethyl phthalate, tributyl phosphate, and cyclohexane was encapsulated by the procedure described in Experiment 5 above. A coating mixture of 10.0 g of capsule slurry, 2.5 g of Dow-620 butadiene-styrene latex, and 62.5 g of 1.5% sodium alginate slurry was coated onto paper by the draw down procedure described above.
# A 7.5% solution comprising 5.45% N-(5-octanoylamido-2-metylpentyl)dithiooxamide/N-(5-octanoylamido-4-methylpentyl)dithiooxamide (G') mixture and 2.05% N,N'-di(5-octanoylamido-2-methylpentyl)dithiooxamide/N-(5-octanoylamido-2- methylpentyl)-N'-(5-octanoylamido-4-methylpentyl)dithiooxamide/N,N'-(5-octanoylamido-2-methylpentyl)dithiooxamide (G) mixture in the fill solvent mixture of diethyl phthalate, tributyl phosphate, and cyclohexanone was encapsulated by the procedure described above. A coating mixture of 10.0 g of capsule slurry, 2.5 g of Dow 620 styrene-butadiene latex, and 62.5 g of 1.5% sodium alginate solution was coated onto paper by the draw down procedure described in Experiment 5 above. […]
# [2] = Solubility in capsule fill solvents
# Method: The encapsulation process requires the color-forming ligand be dissolved in a solvent or mixed solvents, because of the nature of the procedure. Formation of a microcapsule shell as by condensation of urea or melamine with an aldehyde such as formaldehyde or mixtures of aldehydes to form the capsule shell is carried out in an acidic aqueous medium and the color-former solution must be insoluble and unreactive to these reagents for the encapsulation to proceed. Solvents commonly used include tributyl phosphate, diethyl phthalate, and cyclohexane. […] As mentioned above, solubility of yellow color-formers exemplified by structure I in nonaqueous solvents such as those used in the encapsulation process may be increased by substituting alkyl, aryl, aralkyl, alkenyl, or such groups for the hydrogens on the various positions available in the structure I above.
# (§3) This color observed on the CF sheet was yellow. […] Solubility in a solvent blend of tributyl phosphate, diethyl phthalate and cyclohexane (capsule solvents for preparing carbonless copy-paper) was >9% by weight. Thus the ligand is eminently suitable for encapsulation. The ligand is not volatile at 71 ° C. overnight.
# Solubility in a solvent blend of tributyl phosphate, diethyl phthalate and cyclohexane (capsule solvents for preparing carbonless copy-paper) was 3% by weight. Thus the ligand is eminently suitable for encapsulation. The ligand is not volatile at 71 ° C. overnight.
# *THE SOLUBILITY WAS DEEMED PREFERABLE IF IT WAS GREATER THAN 2% IN THE
# FILL MIX AT ROOM TEMPERATURE FOR 3 DAYS. THE FILL MIX COMPRISED
# TRIBUTYLPHOSPHATE (26.5%); DIETHYLPHTHALATE (17.6%); AND CYCLOHEXANE
# [3] = Imaging of CB sheet with encapsulated color-former on Ni-coated CF sheet
# Method: A precondensate solution was prepared comprising 192 g of formalin, 0.63 g of potassium tetraborate, 72 g of urea, and 328 g of soft water. The formalin was 37% formaldehyde and was added to a 1-liter flask equipped with a stirrer and heating mantle. The potassium tetraborate and urea were then added, and the mixture was heated to 70° C. The reaction was maintained at that temperature for 2.5-3.0 hr. The reaction mixture was then diluted with the water and allowed to cool. The precondensate solution, with about 24% solids, was then ready for use in the encapsulation process.
# The precondensate and fill (ethanediimidic acid bis[hydrazide] and carrier or fill solvents) were combined to make capsules according to the following procedure. Sodium chloride (29.54 g) was added to the stirred precondensate solution and the temperature of the solution was adjusted to 20° C. The fill material (215 g) was added and full agitation was begun. After 5 minutes of stirring, 10% hydrochloric acid solution was added over 5 minutes in an amount such that the final pH of the reaction mixture was about 2.8. The reaction mixture was stirred for another 12 minutes. More of the 10% hydrochloric acid solution was added over a period of 12 minutes, in an amount such that the final pH of the solution was about […]. The reaction mixture was stirred at 20° C. for 1 hr, and then at 60° C. for 1-3 hr. The acidic solution was allowed to cool and adjusted to a pH of 7 by addition of concentrated ammonium hydroxide solution (28%). The capsule slurry could then be stored for later use.
# as §1, §2
# A 7.5% solution comprising 5.45% N-(5-octanoylamido-2-metylpentyl)dithiooxamide/N-(5-octanoylamido-4-methylpentyl)dithiooxamide (G') mixture and 2.05% N,N'-di(5-octanoylamido-2-methylpentyl)dithiooxamide/N-(5-octanoylamido-2- methylpentyl)-N'-(5-octanoylamido-4-methylpentyl)dithiooxamide/N,N'-(5-octanoylamido-2-methylpentyl)dithiooxamide (G) mixture in the fill solvent mixture of diethyl phthalate, tributyl phosphate, and cyclohexanone was encapsulated by the procedure described above. A coating mixture of 10.0 g of capsule slurry, 2.5 g of Dow 620 styrene-butadiene latex, and 62.5 g of 1.5% sodium alginate solution was coated onto paper by the draw down procedure described in Experiment 5 above.
# A blend was prepared of 10 g of the capsule slurry containing compound 1, with 10 g of capsule slurry containing 5.45% N-(5-octanoylamido-2-methylpentyl)dithiooxamide/N-(5-octanoylamido-4-methylpentyl)dithiooxamide (G') mixture and 2.05% N,N'-di(5-octanoylamido-2-methylpentyl)dithiooxamide/N-(5-octanoylamido-2- methylpentyl)-N'-(5-octanoylamido-4-methylpentyl)dithiooxamide/N,N'-di(5-octanoylamido-4-methylpentyl)dithiooxamide (G) mixture. […]
# [4] = Color formation with zinc salts (zinc rosinate)
# Method: as §3
# This color observed on the CF sheet was yellow.
# [5] = Stability in concentrated hydrochloric acid
# [6] = encapsulated, 2% compound 1 fill, 7.5% G'/G fill, or blend of both capsule slurries (Experiment 6)
compound,measurement,setting,value
"CC(C)(C)c1cc(C=NN=C(N)C(N)=NN=Cc2cc(C(C)(C)C)cc(C(C)(C)C)c2O)c(O)c(C(C)(C)C)c1 [Compound 1, ethanediimidic acid bis[(3,5-di-t-butylsalicylidene)hydrazide]]",color of coated (CB) sheet,[1],neutral in color
same,"Solubility in a solvent blend of tributyl phosphate, diethyl phthalate and cyclohexane",[2],> 9 % by weight
same,solubility in encapsulation / capsule solvents (in words),[2],very soluble in encapsulation solvents
same,Dye Solubility,[2]; 4320 min,> 9.0%
same,Image Color,[3]; encapsulated (Experiment 6),yellow
same,Hunter coordinate L,[3]; [6],84.0
same,Hunter coordinate a,[3]; [6],-2.04
same,Hunter coordinate b,[3]; [6],31.0
same,color formation when reacted with zinc rosinate,[4],does not form color
same,stability in concentrated hydrochloric acid,[5],stable
